Marks after values point to notes of the source that are not given here.
Columns and labels:
[1] = Optical / fluorescence properties (absorption, emission, extinction coefficient, quantum yield, lifetime); type: physicochemical
[2] = Water solubility and hydrophilic nature; type: physicochemical; settings: for solubility in water (in words): water at pH=7, in carboxylate form
[3] = asterisk: in water and PBS buffer

Φ ([1]; in dichloromethane)	ε ([1]; in dichloromethane)	λabs ([1]; in dichloromethane)	λem ([1]; in dichloromethane)	Φ [1, 3]	ε [1, 3]	λabs [1, 3]	λem [1, 3]	water-soluble (in words) [2]	SMILES	further results
85%	80000 M⁻¹ cm⁻¹	522 nm	488 nm	–	–	–	–	–	CCOC(=O)c1ccc(C2=C3C(C)=C(CC)C(C)=[N+]3[B-](C#CCOCCOC)(C#CCOCCOC)n3c(C)c(CC)c(C)c32)cc1 [Ia-6]	–
–	–	–	–	70* %	70000* M^−1 cm^−1	564* nm	578* nm	water-soluble	COCCOCC#C[B-]1(C#CCOCCOC)n2c(/C=C/c3ccc(OCCOCCOC)cc3)cc(C)c2C(c2ccc(C(=O)O)cc2)=C2C(C)=CC(C)=[N+]21 [Ia-12]	solubility in water (in words) [2]: soluble in water
–	–	–	–	–	–	–	–	–	CCC1=C(C)C2=C(c3ccc(I)cc3)c3c(C)c(CC)c(C)n3[B-](C#CCN(C)C)(C#CCN(C)C)[N+]2=C1C [Ic-0]	ζ (fluorescence lifetime) ([1]; CH2Cl2): 6.6 ns; Fluorescence λem ([1]; CH2Cl2, 6.1×10^−7 M): 533 nm; Fluorescence φ ([1]; CH2Cl2, 6.1×10^−7 M): 48%
–	–	–	–	–	–	–	–	–	CCC1=C(C)C2=C(c3ccc(C#Cc4ccc5ccc6c(C(=O)OCCOCCOC)ccc7ccc4c5c76)cc3)c3c(C)c(CC)c(C)n3[B-](C#CC[N+](C)(C)CCCS(=O)(=O)[O-])(C#CC[N+](C)(C)CCCS(=O)(=O)[O-])[N+]2=C1C [Ic-3]	Fluorescence λem ([1]; EtOH): 533 nm; Fluorescence φ ([1]; EtOH): 39%
50%	78500 M⁻¹ cm⁻¹	501 nm	513 nm	60* %	74000* M^−1 cm^−1	494* nm	506* nm	water-soluble	COCCOCC#C[B-]1(C#CCOCCOC)n2c(C)cc(C)c2C(c2ccc(C(=O)O)cc2)=C2C(C)=CC(C)=[N+]21 [Ia-9]	solubility in water (in words) [2]: soluble in water
–	–	–	–	70* %	65000* M^−1 cm^−1	517* nm	530* nm	water-soluble	CCC1=C(C)C2=C(c3ccc(C(=O)O)cc3)c3c(C)c(CC)c(C)n3[B-](C#CCOCCOC)(C#CCOCCOC)[N+]2=C1C [Ia-10]	solubility in water (in words) [2]: soluble in water
30%	65000 M⁻¹ cm⁻¹	500 nm	513 nm	–	–	–	–	–	COCCOCC#C[B-]1(C#CCOCCOC)n2c(C)cc(C)c2C(c2ccc(C(=O)NCCN)cc2)=C2C(C)=CC(C)=[N+]21 [Ia-13]	–
74%	118000 M⁻¹ cm⁻¹	647 nm	662 nm	–	–	–	–	–	COCCOCC#C[B-]1(C#CCOCCOC)n2c(/C=C/c3ccc(OCCOCCOC)cc3)cc(C)c2C(c2ccc(C(=O)O)cc2)=C2C(C)=CC(/C=C/c3ccc(OCCOCCOC)cc3)=[N+]21 [Ia-11]	–
–	–	–	–	–	–	–	–	–	CCOC(=O)c1ccc(C2=C3C(C)=C(CC)C(C)=[N+]3[B-](C#CC[N+](C)(C)CCCS(=O)(=O)[O-])(C#CC[N+](C)(C)CCCS(=O)(=O)[O-])n3c(C)c(CC)c(C)c32)cc1 [Ic-2]	Fluorescence λem ([1]; EtOH): 533 nm; Fluorescence φ ([1]; EtOH): 45%
80%	84000 M⁻¹ cm⁻¹	501 nm	511 nm	–	–	–	–	–	CCOC(=O)CNC(=O)c1ccc(C2=C3C(C)=CC(C)=[N+]3[B-](C#CCOCCOC)(C#CCOCCOC)n3c(C)cc(C)c32)cc1 [Ia-14]	–
60%	67000 M⁻¹ cm⁻¹	501 nm	511 nm	50* %	62000* M^−1 cm^−1	495* nm	507* nm	water-soluble	COCCOCC#C[B-]1(C#CCOCCOC)n2c(C)cc(C)c2C(c2ccc(C(=O)NCC(=O)O)cc2)=C2C(C)=CC(C)=[N+]21 [Ia-15]	–

SMILES	Φ ([1]; in dichloromethane)	ε ([1]; in dichloromethane)	λabs ([1]; in dichloromethane)	λem ([1]; in dichloromethane)	Φ [1, 3]	ε [1, 3]	λabs [1, 3]	λem [1, 3]	water-soluble (in words) [2]	further results
CCC1=C(C)C2=C(c3ccc(I)cc3)c3c(C)c(CC)c(C)n3[B-](C#CCOCCOC)(C#CCOCCOC)[N+]2=C1C [Ia-2]	80%	82000 M⁻¹ cm⁻¹	522 nm	488 nm	–	–	–	–	–	–
CCC1=C(C)C2=C(c3ccc(I)cc3)c3c(C)c(CC)c(C)n3[B-](C#CC[N+](C)(C)CCCS(=O)(=O)[O-])(C#CC[N+](C)(C)CCCS(=O)(=O)[O-])[N+]2=C1C [Ic-1]	–	–	–	–	61* %	72000* M^−1 cm^−1	519* nm	530* nm	water-soluble	Fluorescence λem ([1]; EtOH): 532 nm; Fluorescence φ ([1]; EtOH): 71%; fluorescence lifetime ([1]; H2O): 7.0 ns; Fluorescence λem ([1]; PBS buffer, 4.6×10^−7 M): 530 nm; Fluorescence φ ([1]; PBS buffer, 4.6×10^−7 M): 61%
COCCOCC#C[B-]1(C#CCOCCOC)n2c(/C=C/c3ccc(OCCOCCOC)cc3)cc(C)c2C(c2ccc(I)cc2)=C2C(C)=CC(/C=C/c3ccc(OCCOCCOC)cc3)=[N+]21 [Ia-3]	75%	126600 M⁻¹ cm⁻¹	646 nm	371 nm	–	–	–	–	–	–
COCCOCC#C[B-]1(C#CCOCCOC)n2c(C)cc(C)c2C(c2ccc(I)cc2)=C2C(C)=CC(C)=[N+]21 [Ia-1]	65%	90000 M⁻¹ cm⁻¹	500 nm	511 nm	–	–	–	–	–	–
